Measured values as given in patent US20230090255A1, “MAGL INHIBITOR, PREPARATION METHOD THEREFOR AND USE THEREOF” (LUNAN PHARMACEUTICAL GROUP CORPORATION, priority 2019, published 2023).

Columns and labels:
[1] = tested on: mice pain response induced by hot plate; test: Mice pain response induced by hot plate; format: in vivo, ICR mice; settings: for pain thresholds of the thermal-stimulus mice, in words: compared with the model group; for Pain threshold: hot plate 55°C
Outline: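 Female ICR mice (20±2 g) dosed intragastrically for 7 consecutive days. Latency to hind-paw licking on a 55±0.5° C hot plate measured at 30, 60, 90 and 120 min after the last dose, with a 60 s cap. Mice with baseline latency <5 s or >30 s, or jumping, excluded.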

[2] = tested on: mice with inflammatory pain; test: Pain threshold of mice with inflammatory pain (complete Freund's adjuvant); format: in vivo, SD mice; settings: for pain threshold of the mice with inflammatory pain, in words: compared with the model group; for Pain threshold: complete Freund's adjuvant paw model
[3] = tested on: reserpine-induced mice migraine; test: Reserpine-induced mice migraine; format: in vivo, ICR mice; settings: for blood coagulation time, in words / level of 5-HT in the brain tissue, in words / times of the tail suspension activity, in words: compared with the model group; for Blood coagulation time: reserpine 0.2 mg/kg sc mice, 1 h after final administration; for brain tissue 5-HT / Times of tail suspension (struggling times within 2 min): reserpine mice; for Times of tail suspension (struggling times within 2 min): 9th day
ulcerative colitis mice = test: Mice ulcerative colitis (DSS); format: in vivo, BALB/c mice; settings: for Total times of hematochezia within the four periods / Colon length / IL-1 content: DSS mice; for Colon length: four periods; for IL-1 content: serum, ELISA; for IL-1 content, in words / colon length, in words / total times of hematochezia, in words: compared with the model group
[4] = tested on: mice writhing caused by acetic acid; test: Mice writhing caused by acetic acid; settings: for latent time, in words / mice writhing times caused by acetic acid, in words: compared with the model group; for Writhing times: 1 h before 0.7% acetic acid ip, within 20 min; for Latent time: time to first writhing; for Inhibition ratio: writhing inhibition
[5] = high dose 30 mg/kg ig 7 d, 30 min after final administration
[6] = high dose 30 mg/kg ig 7 d, 60 min
[7] = high dose 30 mg/kg ig 7 d, 90 min
[8] = high dose 30 mg/kg ig 7 d, 120 min
[9] = low dose 7.5 mg/kg ig 7 d, 30 min after final administration
[10] = low dose 7.5 mg/kg ig 7 d, 60 min
[11] = low dose 7.5 mg/kg ig 7 d, 90 min
[12] = low dose 7.5 mg/kg ig 7 d, 120 min
[13] = middle dose 15 mg/kg ig 7 d, 30 min after final administration
[14] = middle dose 15 mg/kg ig 7 d, 60 min
[15] = middle dose 15 mg/kg ig 7 d, 90 min
[16] = middle dose 15 mg/kg ig 7 d, 120 min
[17] = high dose 30 mg/kg ig once per day, 0 d
[18] = high dose 30 mg/kg ig once per day, 1 d
[19] = high dose 30 mg/kg ig once per day, 3 d
[20] = high dose 30 mg/kg ig once per day, 7 d
[21] = low dose 7.5 mg/kg ig once per day, 0 d
[22] = low dose 7.5 mg/kg ig once per day, 1 d
[23] = low dose 7.5 mg/kg ig once per day, 3 d
[24] = low dose 7.5 mg/kg ig once per day, 7 d
[25] = middle dose 15 mg/kg ig once per day, 0 d
[26] = middle dose 15 mg/kg ig once per day, 1 d
[27] = middle dose 15 mg/kg ig once per day, 3 d
[28] = middle dose 15 mg/kg ig once per day, 7 d

O=C(Nc1cccc(Cl)c1)C1CCN(C(=O)c2cc3cc(F)ccc3[nH]2)CC1 [MAGLZ-II-18 (a)]
pain thresholds of the thermal-stimulus mice, in words [1]: significantly extend
Pain threshold [1, 5]: 40.86 ± 7.17 s
Pain threshold [1, 6]: 46.29 ± 5.27 s
Pain threshold [1, 7]: 48.70 ± 5.73 s
Pain threshold [1, 8]: 47.04 ± 5.54 s
Pain threshold [1, 9]: 34.62 ± 6.65 s
Pain threshold [1, 10]: 40.29 ± 6.73 s
Pain threshold [1, 11]: 43.98 ± 6.55 s
Pain threshold [1, 12]: 43.56 ± 6.01 s
Pain threshold [1, 13]: 37.51 ± 6.07 s
Pain threshold [1, 14]: 42.42 ± 5.90 s
Pain threshold [1, 15]: 45.86 ± 7.09 s
Pain threshold [1, 16]: 44.38 ± 5.44 s
pain threshold of the mice with inflammatory pain, in words [2]: significantly extend
Pain threshold [2, 17]: 12.85 ± 2.26 s
Pain threshold [2, 18]: 7.49±0.79^∗∗∗ s
Pain threshold [2, 19]: 9.35±1.2^∗∗∗ s
Pain threshold [2, 20]: 10.37±1.59^∗∗∗ s
Pain threshold [2, 21]: 12.73 ± 2.43 s
Pain threshold [2, 22]: 6.97±0.87^∗∗ s
Pain threshold [2, 23]: 8.44±1.03^∗∗∗ s
Pain threshold [2, 24]: 9.56±0.92^∗∗ s
Pain threshold [2, 25]: 12.86 ± 2.25 s
Pain threshold [2, 26]: 7.26±0.70^∗∗∗ s
Pain threshold [2, 27]: 9.01±0.68^∗∗∗ s
Pain threshold [2, 28]: 10.37±1.49^∗∗∗ s
blood coagulation time, in words [3]: significantly extend
level of 5-HT in the brain tissue, in words [3]: significantly increase
times of the tail suspension activity, in words [3]: significantly increase
Blood coagulation time ([3]; high dose 30 mg/kg ig 10 d): 252.25±30.99 S
Blood coagulation time ([3]; low dose 7.5 mg/kg ig 10 d): 137.25±67.22 S
Blood coagulation time ([3]; middle dose 15 mg/kg ig 10 d): 191.50±63.66 S
brain tissue 5-HT ([3]; high dose 30 mg/kg ig 10 d): 2.76 ± 0.34 nmol/g
Times of tail suspension (struggling times within 2 min) ([3]; high dose 30 mg/kg ig): 18.50±2.00
brain tissue 5-HT ([3]; low dose 7.5 mg/kg ig 10 d): 1.21 ± 0.17 nmol/g
Times of tail suspension (struggling times within 2 min) ([3]; low dose 7.5 mg/kg ig): 11.38±2.67
brain tissue 5-HT ([3]; middle dose 15 mg/kg ig 10 d): 1.65 ± 0.18 nmol/g
Times of tail suspension (struggling times within 2 min) ([3]; middle dose 15 mg/kg ig): 13.38±2.67
Total times of hematochezia within the four periods (ulcerative colitis mice; high dose 30 mg/kg ig): 27.90±7.28
Colon length (ulcerative colitis mice; high dose 30 mg/kg ig): 7.72±0.92 cm
IL-1 content (ulcerative colitis mice; high dose 30 mg/kg ig): 36.22 ± 4.31 pg/mL
Total times of hematochezia within the four periods (ulcerative colitis mice; low dose 7.5 mg/kg ig): 33.60±5.83
Colon length (ulcerative colitis mice; low dose 7.5 mg/kg ig): 6.51±0.90 cm
IL-1 content (ulcerative colitis mice; low dose 7.5 mg/kg ig): 47.32 ± 9.06 pg/mL
Total times of hematochezia within the four periods (ulcerative colitis mice; middle dose 15 mg/kg ig): 29.90±8.95
Colon length (ulcerative colitis mice; middle dose 15 mg/kg ig): 7.06±1.20 cm
IL-1 content (ulcerative colitis mice; middle dose 15 mg/kg ig): 43.77 ± 10.69 pg/mL
IL-1 content, in words (ulcerative colitis mice): decrease
colon length, in words (ulcerative colitis mice): significantly increase
total times of hematochezia, in words (ulcerative colitis mice): reduce
latent time, in words [4]: extend
mice writhing times caused by acetic acid, in words [4]: significantly decrease
Writhing times ([4]; high dose 30 mg/kg ig): 17.8±11.1
Latent time ([4]; high dose 30 mg/kg ig): 422.4 ± 137.9 s
Inhibition ratio ([4]; high dose 30 mg/kg ig): 54.7%
Writhing times ([4]; low dose 7.5 mg/kg ig): 24.2±8.5
Latent time ([4]; low dose 7.5 mg/kg ig): 355.5 ± 136.5 s
Inhibition ratio ([4]; low dose 7.5 mg/kg ig): 38.4%
Writhing times ([4]; middle dose 15 mg/kg ig): 20.8±12.5
Latent time ([4]; middle dose 15 mg/kg ig): 380.7 ± 130.7 s
Inhibition ratio ([4]; middle dose 15 mg/kg ig): 47.1%

Cn1c(C(=O)N2CCC(C(=O)Nc3cccc(Cl)c3)CC2)cc2ccccc21 [MAGLZ-II-18 (c)]
pain thresholds of the thermal-stimulus mice, in words [1]: significantly extend
Pain threshold [1, 5]: 29.23 ± 7.95 s
Pain threshold [1, 6]: 30.24 ± 7.80 s
Pain threshold [1, 7]: 30.66 ± 8.35 s
Pain threshold [1, 8]: 29.87 ± 7.43 s
Pain threshold [1, 9]: 23.98 ± 6.89 s
Pain threshold [1, 10]: 24.75 ± 6.91 s
Pain threshold [1, 11]: 25.16 ± 8.87 s
Pain threshold [1, 12]: 24.28 ± 7.17 s
Pain threshold [1, 13]: 26.82 ± 7.99 s
Pain threshold [1, 14]: 28.52 ± 6.18 s
Pain threshold [1, 15]: 28.66 ± 8.73 s
Pain threshold [1, 16]: 27.88 ± 7.74 s
pain threshold of the mice with inflammatory pain, in words [2]: significantly extend
Pain threshold [2, 17]: 12.85±2.09^∗ s
Pain threshold [2, 18]: 6.44±0.92^∗ s
Pain threshold [2, 19]: 8.17±1.14^∗ s
Pain threshold [2, 20]: 9.05±0.84^∗ s
Pain threshold [2, 21]: 12.75±2.46^∗ s
Pain threshold [2, 22]: 6.36±0.89^∗ s
Pain threshold [2, 23]: 7.98±1.21^∗ s
Pain threshold [2, 24]: 8.95±0.67^∗ s
Pain threshold [2, 25]: 12.86±2.07^∗ s
Pain threshold [2, 26]: 6.41±0.91^∗ s
Pain threshold [2, 27]: 8.10±1.30^∗ s
Pain threshold [2, 28]: 8.99±0.92^∗ s
blood coagulation time, in words [3]: significantly extend
level of 5-HT in the brain tissue, in words [3]: significantly increase
times of the tail suspension activity, in words [3]: significantly increase
Blood coagulation time ([3]; high dose 30 mg/kg ig 10 d): 237.13±28.75 S
Blood coagulation time ([3]; low dose 7.5 mg/kg ig 10 d): 148.00±30.23 S
Blood coagulation time ([3]; middle dose 15 mg/kg ig 10 d): 198.63±21.36 S
brain tissue 5-HT ([3]; high dose 30 mg/kg ig 10 d): 1.79 ± 0.32 nmol/g
Times of tail suspension (struggling times within 2 min) ([3]; high dose 30 mg/kg ig): 15.88±3.8
brain tissue 5-HT ([3]; low dose 7.5 mg/kg ig 10 d): 1.14 ± 0.22 nmol/g
Times of tail suspension (struggling times within 2 min) ([3]; low dose 7.5 mg/kg ig): 10.13±2.3
brain tissue 5-HT ([3]; middle dose 15 mg/kg ig 10 d): 1.37 ± 0.34 nmol/g
Times of tail suspension (struggling times within 2 min) ([3]; middle dose 15 mg/kg ig): 12.75±2.6
Total times of hematochezia within the four periods (ulcerative colitis mice; high dose 30 mg/kg ig): 31.80±6.6
Colon length (ulcerative colitis mice; high dose 30 mg/kg ig): 6.65±0.67 cm
IL-1 content (ulcerative colitis mice; high dose 30 mg/kg ig): 45.10 ± 8.88 pg/mL
Total times of hematochezia within the four periods (ulcerative colitis mice; low dose 7.5 mg/kg ig): 43.10±7.59
Colon length (ulcerative colitis mice; low dose 7.5 mg/kg ig): 6.25±1.17 cm
IL-1 content (ulcerative colitis mice; low dose 7.5 mg/kg ig): 48.08 ± 13.18 pg/mL
Total times of hematochezia within the four periods (ulcerative colitis mice; middle dose 15 mg/kg ig): 43.20±5.31
Colon length (ulcerative colitis mice; middle dose 15 mg/kg ig): 6.47±0.71 cm
IL-1 content (ulcerative colitis mice; middle dose 15 mg/kg ig): 44.09 ± 9.13 pg/mL
IL-1 content, in words (ulcerative colitis mice): decrease
colon length, in words (ulcerative colitis mice): significantly increase
total times of hematochezia, in words (ulcerative colitis mice): reduce
latent time, in words [4]: extend
mice writhing times caused by acetic acid, in words [4]: significantly decrease
Writhing times ([4]; high dose 30 mg/kg ig): 19.9±12.2
Latent time ([4]; high dose 30 mg/kg ig): 373.6 ± 114.0 s
Inhibition ratio ([4]; high dose 30 mg/kg ig): 49.4%
Writhing times ([4]; low dose 7.5 mg/kg ig): 28.3±11.9
Latent time ([4]; low dose 7.5 mg/kg ig): 263.5 ± 77.7 s
Inhibition ratio ([4]; low dose 7.5 mg/kg ig): 28.0%
Writhing times ([4]; middle dose 15 mg/kg ig): 24.9±12.2
Latent time ([4]; middle dose 15 mg/kg ig): 312.7 ± 90.9 s
Inhibition ratio ([4]; middle dose 15 mg/kg ig): 36.6%
